Results as given in ChEMBL document CHEMBL1201862, “PubChem BioAssay data set” (2004).
Activity calls are given as the source filed them.

Legend:
[1] = molecular target: Serine/threonine-protein phosphatase PP1-alpha catalytic subunit (Homo sapiens, UniProt P62136); assay: PP1 phosphatase inhibitors, dose response, biochemical, fluorescence (AID 2403);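 further: phosphatase turnover of OMFP into fluorescent 3-O-methylfluorescein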
[2] = molecular target: T1, Serine/threonine-protein phosphatase (Homo sapiens, UniProt Q9BPW0); assay: Counterscreen for inhibitors of PP1: fluorescence-based biochemical high throughput dose response assay to identify inhibitors of Protein Phosphatase 5 (PP5). [Related pubchem assays: 2034 (Summary (PP5 inhibitors)), 1987 (PP5 inhibitors in singlate), 2235 (PP1 inhibitors in singlate)]
T1 sequence (Q9BPW0 whole entry): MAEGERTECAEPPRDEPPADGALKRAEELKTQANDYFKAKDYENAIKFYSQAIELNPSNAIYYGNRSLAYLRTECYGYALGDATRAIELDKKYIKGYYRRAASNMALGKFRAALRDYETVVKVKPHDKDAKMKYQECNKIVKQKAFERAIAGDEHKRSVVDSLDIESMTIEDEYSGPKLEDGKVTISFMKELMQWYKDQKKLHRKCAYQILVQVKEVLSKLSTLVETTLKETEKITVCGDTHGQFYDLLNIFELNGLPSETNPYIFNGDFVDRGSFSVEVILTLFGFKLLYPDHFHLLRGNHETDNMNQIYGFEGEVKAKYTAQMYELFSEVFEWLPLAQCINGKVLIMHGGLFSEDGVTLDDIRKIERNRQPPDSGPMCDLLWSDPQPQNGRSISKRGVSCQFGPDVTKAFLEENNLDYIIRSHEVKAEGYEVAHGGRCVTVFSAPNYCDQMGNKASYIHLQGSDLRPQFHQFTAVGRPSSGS

Coagulation factor XII = molecular target: T2, Coagulation factor XII (Homo sapiens, UniProt P00748); type: functional;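 further: activated factor XIIa alpha cleaving a fluorogenic AMC peptide substrate; inhibitor potency from loss of enzyme activity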
T2 sequence (P00748 whole entry): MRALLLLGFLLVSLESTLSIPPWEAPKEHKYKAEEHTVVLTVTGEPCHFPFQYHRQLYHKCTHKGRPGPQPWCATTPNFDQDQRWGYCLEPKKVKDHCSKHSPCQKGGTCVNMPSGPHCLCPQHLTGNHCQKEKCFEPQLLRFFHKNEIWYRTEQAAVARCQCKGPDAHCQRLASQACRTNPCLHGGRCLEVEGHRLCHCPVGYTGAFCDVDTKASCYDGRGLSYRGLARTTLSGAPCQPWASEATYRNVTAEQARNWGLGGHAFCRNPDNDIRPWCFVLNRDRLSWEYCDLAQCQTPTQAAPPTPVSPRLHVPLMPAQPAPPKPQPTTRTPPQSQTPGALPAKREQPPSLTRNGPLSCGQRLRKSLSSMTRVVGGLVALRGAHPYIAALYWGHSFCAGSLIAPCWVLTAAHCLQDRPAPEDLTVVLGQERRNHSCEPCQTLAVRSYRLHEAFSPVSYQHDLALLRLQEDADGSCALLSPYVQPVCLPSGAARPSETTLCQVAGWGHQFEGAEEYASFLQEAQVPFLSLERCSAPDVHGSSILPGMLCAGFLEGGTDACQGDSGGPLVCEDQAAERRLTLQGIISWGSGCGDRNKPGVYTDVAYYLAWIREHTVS

[3] = molecular target: G-protein coupled receptor 55 (Homo sapiens, UniProt Q9Y2T6); assay: GPR55 antagonists blocking LPI-driven arrestin recruitment, primary screen, imaging, U2OS, beta-arrestin-GFP, LPI agonist (AID 2013); type: functional;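 further: antagonist potency measured as reduced agonist-driven arrestin aggregation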
Chain of G-protein coupled receptor 55 (Q9Y2T6 whole entry): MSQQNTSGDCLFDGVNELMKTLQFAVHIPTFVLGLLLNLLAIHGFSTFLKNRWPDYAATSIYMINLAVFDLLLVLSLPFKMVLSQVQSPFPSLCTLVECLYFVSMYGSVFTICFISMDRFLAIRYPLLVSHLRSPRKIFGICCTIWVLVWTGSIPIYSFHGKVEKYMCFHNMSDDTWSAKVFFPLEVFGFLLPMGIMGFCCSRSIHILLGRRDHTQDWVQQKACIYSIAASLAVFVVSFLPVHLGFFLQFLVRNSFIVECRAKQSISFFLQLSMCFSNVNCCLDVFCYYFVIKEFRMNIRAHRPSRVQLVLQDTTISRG

[4] = molecular target: T3, Polyadenylate-binding protein 1 (Homo sapiens, UniProt P11940); assay: PABP1 MLLE–PAM2 interaction inhibitors, dose response, miRNA deadenylation inhibitor project, biochemical, fluorescence polarization, Cy5-PAM2 peptide, secondary (AID 602260); type: functional; details: read-out: IC50_Mean
T3 sequence (P11940 whole entry): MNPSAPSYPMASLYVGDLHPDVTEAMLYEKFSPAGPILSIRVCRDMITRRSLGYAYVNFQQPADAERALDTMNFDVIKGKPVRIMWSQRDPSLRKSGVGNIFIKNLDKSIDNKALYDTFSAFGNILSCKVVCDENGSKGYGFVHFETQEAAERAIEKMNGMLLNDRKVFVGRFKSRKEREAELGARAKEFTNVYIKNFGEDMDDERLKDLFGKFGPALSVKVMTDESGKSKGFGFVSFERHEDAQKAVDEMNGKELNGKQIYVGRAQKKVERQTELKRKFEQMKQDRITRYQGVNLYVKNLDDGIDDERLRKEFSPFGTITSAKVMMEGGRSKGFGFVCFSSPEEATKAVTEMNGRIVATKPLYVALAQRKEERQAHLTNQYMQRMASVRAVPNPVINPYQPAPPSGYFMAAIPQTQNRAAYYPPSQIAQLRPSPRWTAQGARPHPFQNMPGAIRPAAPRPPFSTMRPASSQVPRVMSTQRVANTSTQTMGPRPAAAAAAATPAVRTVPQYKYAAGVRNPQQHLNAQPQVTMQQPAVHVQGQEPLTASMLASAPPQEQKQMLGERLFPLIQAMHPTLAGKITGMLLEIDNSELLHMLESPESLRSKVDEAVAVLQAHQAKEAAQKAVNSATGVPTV

[5] = molecular target: T3, Polyadenylate-binding protein 1; assay: PABP1 MLLE–PAM2 binding inhibitor potency, dose response, biochemical, fluorescence polarization, FITC-PAM2 peptide (AID 602259); type: functional; details: read-out: IC50_Mean
[6] = A Cell Based Secondary Assay To Explore Cytotoxicity of Compounds that Sensitize Mycobacterium Tuberculosis to Beta-Lactam Antibiotics.; type: functional
[7] = molecular target: Voltage-dependent T-type calcium channel subunit alpha-1H (Homo sapiens, UniProt O95180); type: functional;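 further: channel activity triggered by adding a high calcium stimulation buffer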
Chain of Voltage-dependent T-type calcium channel subunit alpha-1H (O95180 whole entry): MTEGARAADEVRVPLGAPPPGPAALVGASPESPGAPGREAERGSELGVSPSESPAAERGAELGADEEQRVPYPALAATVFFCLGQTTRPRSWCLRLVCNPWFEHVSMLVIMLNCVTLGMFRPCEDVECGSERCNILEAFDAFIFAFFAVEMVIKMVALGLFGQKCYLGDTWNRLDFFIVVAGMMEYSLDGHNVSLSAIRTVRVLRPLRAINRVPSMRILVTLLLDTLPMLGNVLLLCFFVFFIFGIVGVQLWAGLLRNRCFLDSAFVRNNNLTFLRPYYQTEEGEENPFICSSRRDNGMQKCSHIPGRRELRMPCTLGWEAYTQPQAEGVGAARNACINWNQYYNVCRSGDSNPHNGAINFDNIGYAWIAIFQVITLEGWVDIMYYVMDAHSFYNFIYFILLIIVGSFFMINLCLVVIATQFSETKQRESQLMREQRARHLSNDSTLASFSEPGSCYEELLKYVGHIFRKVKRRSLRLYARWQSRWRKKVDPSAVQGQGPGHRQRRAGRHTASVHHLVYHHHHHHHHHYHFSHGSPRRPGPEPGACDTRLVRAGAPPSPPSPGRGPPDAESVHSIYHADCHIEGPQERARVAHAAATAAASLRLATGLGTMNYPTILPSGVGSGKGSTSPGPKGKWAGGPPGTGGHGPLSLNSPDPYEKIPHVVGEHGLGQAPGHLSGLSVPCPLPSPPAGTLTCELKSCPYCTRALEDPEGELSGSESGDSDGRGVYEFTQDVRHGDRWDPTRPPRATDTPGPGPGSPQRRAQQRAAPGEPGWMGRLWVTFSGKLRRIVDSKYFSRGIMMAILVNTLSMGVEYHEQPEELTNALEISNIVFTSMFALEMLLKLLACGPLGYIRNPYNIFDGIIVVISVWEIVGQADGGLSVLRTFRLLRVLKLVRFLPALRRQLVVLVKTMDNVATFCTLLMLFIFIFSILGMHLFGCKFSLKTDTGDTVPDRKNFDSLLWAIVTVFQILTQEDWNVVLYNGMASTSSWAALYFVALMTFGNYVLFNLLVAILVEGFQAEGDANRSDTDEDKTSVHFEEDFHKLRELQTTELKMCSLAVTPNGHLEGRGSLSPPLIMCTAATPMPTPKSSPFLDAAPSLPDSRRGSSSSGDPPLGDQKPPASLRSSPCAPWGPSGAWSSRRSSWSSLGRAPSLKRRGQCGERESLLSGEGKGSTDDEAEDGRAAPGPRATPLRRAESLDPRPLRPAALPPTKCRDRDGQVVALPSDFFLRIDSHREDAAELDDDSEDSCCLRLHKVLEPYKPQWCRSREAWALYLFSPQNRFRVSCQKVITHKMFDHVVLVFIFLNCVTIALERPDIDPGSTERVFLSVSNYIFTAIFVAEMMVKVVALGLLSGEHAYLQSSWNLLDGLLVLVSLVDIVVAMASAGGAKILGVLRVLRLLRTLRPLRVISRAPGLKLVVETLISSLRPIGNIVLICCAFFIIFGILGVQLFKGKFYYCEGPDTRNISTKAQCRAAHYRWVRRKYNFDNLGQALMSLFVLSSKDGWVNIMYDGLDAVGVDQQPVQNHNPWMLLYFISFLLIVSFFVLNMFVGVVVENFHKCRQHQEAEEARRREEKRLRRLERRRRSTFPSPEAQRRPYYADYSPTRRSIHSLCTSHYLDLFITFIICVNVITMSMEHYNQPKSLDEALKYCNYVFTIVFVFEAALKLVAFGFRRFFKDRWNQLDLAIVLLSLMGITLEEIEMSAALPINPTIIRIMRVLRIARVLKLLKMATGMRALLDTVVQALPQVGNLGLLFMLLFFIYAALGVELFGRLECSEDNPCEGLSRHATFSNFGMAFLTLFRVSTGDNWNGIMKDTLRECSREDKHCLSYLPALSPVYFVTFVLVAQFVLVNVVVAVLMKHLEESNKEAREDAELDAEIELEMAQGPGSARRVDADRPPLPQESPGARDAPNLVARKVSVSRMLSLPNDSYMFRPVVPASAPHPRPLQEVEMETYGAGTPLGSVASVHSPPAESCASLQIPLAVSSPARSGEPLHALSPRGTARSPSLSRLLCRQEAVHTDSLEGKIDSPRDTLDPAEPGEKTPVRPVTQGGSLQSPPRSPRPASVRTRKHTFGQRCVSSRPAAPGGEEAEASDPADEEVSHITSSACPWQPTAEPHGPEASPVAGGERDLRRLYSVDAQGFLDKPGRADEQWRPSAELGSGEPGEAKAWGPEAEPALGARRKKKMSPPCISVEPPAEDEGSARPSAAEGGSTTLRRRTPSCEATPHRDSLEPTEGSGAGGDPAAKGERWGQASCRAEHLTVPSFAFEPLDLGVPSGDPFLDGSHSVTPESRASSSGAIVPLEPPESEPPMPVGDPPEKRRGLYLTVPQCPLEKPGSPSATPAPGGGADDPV

[8] = Luminescence Cell-Based Dose Retest to Confirm Inhibitors of Cancer Stem Cells. [Related pubchem assays (depositor defined):AID2717, AID2721]; type: functional; details: Homo sapiens
Troponin, cardiac muscle = Troponin, cardiac muscle (Homo sapiens, UniProt P19429+P45379+P63316); assay: Fluorescence-based biochemical high throughput dose response assay for activators of the calcium sensitivity of cardiac Regulated Thin Filaments (RTF). [Related pubchem assays (depositor defined):AID493008, AID493018, AID504382, AID504383]; type: protein-complex assay
Cytochrome P450 2D6 = Cytochrome P450 2D6 (Homo sapiens, UniProt P10635);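 further: CYP2D6 member of a cytochrome P450 panel assay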
Chain of Cytochrome P450 2D6 (P10635 whole entry): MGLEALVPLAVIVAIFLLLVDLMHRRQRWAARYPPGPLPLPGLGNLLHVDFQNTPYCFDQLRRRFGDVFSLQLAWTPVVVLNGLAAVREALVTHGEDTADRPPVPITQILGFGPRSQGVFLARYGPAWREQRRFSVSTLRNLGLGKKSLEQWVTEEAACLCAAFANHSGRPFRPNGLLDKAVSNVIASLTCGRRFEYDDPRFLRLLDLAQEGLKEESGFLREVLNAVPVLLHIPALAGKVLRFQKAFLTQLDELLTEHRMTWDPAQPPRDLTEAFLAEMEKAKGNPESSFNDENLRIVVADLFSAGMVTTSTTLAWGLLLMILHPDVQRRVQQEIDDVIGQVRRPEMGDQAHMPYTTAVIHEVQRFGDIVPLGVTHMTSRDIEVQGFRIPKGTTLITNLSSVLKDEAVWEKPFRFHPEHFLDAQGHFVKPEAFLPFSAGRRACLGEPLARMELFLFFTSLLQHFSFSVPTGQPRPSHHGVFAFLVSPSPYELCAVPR

[9] = test system: Streptococcus sp. 'group A'; assay: growth inhibition of control SK(-) GAS strain, dose response, counter-screen for streptokinase expression inhibitor project, luminescence, kanamycin, BacTiterGlo, confirmation (AID 1900); type: functional, organism-based
Streptokinase A = molecular target: T4, Streptokinase A (Streptococcus pyogenes serotype M1, UniProt P10520); assay: S. pyogenes streptokinase expression inhibitors, potency, dose response, plasminogen activation absorbance, OD405 (AID 1914); type: functional, Streptococcus pyogenes M1 GAS;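 further: secreted streptokinase activity via plasminogen activation per viability signal from cell pellet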
T4 sequence (P10520 whole entry): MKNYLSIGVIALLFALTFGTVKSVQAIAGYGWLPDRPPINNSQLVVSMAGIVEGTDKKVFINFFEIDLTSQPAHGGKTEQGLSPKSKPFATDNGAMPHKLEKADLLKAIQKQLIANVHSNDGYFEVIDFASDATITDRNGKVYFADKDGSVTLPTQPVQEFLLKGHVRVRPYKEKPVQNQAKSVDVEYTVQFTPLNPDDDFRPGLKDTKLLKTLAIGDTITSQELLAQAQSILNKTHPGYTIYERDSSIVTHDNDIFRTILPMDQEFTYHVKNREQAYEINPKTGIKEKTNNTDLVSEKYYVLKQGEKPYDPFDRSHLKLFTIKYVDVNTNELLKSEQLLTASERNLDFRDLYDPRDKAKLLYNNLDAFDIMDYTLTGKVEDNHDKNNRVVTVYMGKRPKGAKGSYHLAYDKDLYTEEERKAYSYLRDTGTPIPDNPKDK

Streptococcus = assay: Group A Streptococcus viability loss, dose response, counter-screen for streptokinase expression inhibitor project, luminescence, BacTiterGlo (AID 1915); type: functional, organism-based;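 further: potency for reduction of bacterial viability or growth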
[10] = inhibitors of intracellular T. cruzi replication, confirmation, NIH3T3 host cells, beta-gal luminescence (AID 2044); type: functional, cell-based;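 further: intracellular parasites grown in NIH/3T3 mouse fibroblasts as host cells; luminescent beta-galactosidase reporter signal from transgenic T. cruzi replicating inside host cells; inhibitors lower the luminescence signal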
[11] = cytotoxicity toward NIH3T3 fibroblasts, dose response, counter-screen, cell-based, ATP luminescence, mouse fibroblasts (AID 2010); type: functional;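 further: cells exposed to compound for about 90 hours before reading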
[12] = HEp-2 cell cytotoxicity, dose response, cytotoxicity control for RSV inhibitor project, HTS (AID 2410); type: functional; details: human respiratory syncytial virus
[13] = molecular target: Peroxisome proliferator-activated receptor gamma/Nuclear receptor coactivator 2 (Homo sapiens, UniProt P37231); type: functional;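 further: agonist potency for raising coactivator recruitment to the receptor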
[14] = molecular target: Peroxisome proliferator-activated receptor gamma/Nuclear receptor coactivator 1 (Homo sapiens, UniProt P37231); type: functional;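 further: agonist potency as compounds enhance coactivator SRC-1 recruitment to PPARgamma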
Aminopeptidase N = molecular target: T5, Aminopeptidase N (Plasmodium falciparum FcB1/Columbia, UniProt O96935); assay: P. falciparum M1AAP inhibitors, biochemical, fluorogenic H-Leu-NHMec substrate, 1536-well (AID 1445); set-up: species or system Plasmodium falciparum 3D7, 3D7
T5 sequence (O96935 whole entry): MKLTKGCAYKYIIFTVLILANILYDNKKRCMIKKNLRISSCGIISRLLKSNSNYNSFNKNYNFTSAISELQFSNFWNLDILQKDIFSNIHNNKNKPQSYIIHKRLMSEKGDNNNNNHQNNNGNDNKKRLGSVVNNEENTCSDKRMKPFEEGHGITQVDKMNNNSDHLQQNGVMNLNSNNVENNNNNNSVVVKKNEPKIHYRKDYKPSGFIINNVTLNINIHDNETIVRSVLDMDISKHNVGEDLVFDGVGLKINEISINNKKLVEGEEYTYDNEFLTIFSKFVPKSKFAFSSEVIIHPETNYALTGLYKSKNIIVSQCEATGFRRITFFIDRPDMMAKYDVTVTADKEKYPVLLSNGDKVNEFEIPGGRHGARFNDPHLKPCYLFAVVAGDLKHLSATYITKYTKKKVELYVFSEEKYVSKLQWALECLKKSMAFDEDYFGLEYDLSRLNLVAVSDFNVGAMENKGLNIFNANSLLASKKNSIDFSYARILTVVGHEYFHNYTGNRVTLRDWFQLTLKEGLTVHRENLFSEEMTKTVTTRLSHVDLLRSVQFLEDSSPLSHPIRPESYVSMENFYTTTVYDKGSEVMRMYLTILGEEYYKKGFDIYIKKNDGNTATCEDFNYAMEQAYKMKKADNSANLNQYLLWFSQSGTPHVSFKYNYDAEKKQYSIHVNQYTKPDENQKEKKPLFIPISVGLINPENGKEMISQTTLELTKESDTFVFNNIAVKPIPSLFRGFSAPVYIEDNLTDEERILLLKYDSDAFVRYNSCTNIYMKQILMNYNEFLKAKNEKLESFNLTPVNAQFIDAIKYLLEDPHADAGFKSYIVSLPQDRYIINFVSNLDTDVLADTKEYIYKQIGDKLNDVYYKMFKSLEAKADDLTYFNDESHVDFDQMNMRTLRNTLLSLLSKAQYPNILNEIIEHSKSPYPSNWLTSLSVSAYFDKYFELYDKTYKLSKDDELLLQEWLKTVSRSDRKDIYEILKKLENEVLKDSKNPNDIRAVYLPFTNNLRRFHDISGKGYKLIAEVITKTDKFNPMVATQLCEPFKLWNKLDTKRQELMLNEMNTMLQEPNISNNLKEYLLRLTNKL

[15] = molecular target: Peroxisome proliferator-activated receptor gamma/Nuclear receptor coactivator 3 (Homo sapiens, UniProt P37231); type: functional;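 further: agonist potency for raising coactivator recruitment to the receptor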
cells [16] = assay: cells
cells [17] = type: functional, cell-based
[18] = molecular target: T6, Trace amine-associated receptor 1 (Homo sapiens, UniProt Q96RJ0); assay: Fluorescence-based cell-based high throughput dose response assay to identify agonists of the human trace amine associated receptor 1 (TAAR1).; type: functional
T6 sequence (Q96RJ0 whole entry): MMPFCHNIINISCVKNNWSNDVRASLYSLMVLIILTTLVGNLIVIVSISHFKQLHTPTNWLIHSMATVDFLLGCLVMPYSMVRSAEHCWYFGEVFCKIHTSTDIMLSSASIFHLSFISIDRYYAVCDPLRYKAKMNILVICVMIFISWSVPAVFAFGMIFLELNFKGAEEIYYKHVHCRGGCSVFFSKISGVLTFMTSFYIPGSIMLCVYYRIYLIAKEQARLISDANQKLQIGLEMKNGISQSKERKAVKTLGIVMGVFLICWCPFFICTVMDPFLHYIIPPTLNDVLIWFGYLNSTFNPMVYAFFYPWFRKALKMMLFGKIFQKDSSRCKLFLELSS

[19] = molecular target: T6, Trace amine-associated receptor 1; assay: Counterscreen for agonists of the human trace amine associated receptor 1 (hTAAR1): Fluorescence-based cell-based high throughput dose response assay to identify hTAAR1 agonist that also desensitize TAAR1 receptor response.; type: functional
cells [20] = type: functional, cell-based; remark: listed apart in the source
[21] = molecular target: Heat shock cognate 71 kDa protein (Homo sapiens, UniProt P11142); assay: In Vitro Hsc70 Dose Response Fluorescence Polarization Assay. [Related pubchem assays: 1072 ]
Chain of Heat shock cognate 71 kDa protein (P11142 whole entry): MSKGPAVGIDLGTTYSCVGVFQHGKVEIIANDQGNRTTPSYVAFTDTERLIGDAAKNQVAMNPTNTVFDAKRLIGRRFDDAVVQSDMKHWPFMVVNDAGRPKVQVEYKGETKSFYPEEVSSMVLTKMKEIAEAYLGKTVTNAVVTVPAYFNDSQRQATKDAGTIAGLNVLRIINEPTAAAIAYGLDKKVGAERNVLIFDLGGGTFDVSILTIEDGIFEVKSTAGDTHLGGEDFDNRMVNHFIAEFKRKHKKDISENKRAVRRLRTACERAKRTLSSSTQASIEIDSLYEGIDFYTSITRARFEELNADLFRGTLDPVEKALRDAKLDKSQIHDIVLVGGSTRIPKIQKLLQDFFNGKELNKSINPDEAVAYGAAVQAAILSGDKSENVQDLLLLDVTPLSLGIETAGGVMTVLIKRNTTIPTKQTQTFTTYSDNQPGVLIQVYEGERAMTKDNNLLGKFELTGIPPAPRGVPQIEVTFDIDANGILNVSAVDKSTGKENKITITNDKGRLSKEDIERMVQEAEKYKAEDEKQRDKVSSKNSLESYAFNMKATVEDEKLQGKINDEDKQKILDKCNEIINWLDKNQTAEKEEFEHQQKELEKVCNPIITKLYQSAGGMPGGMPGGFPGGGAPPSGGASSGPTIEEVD

[22] = molecular target: Heat shock 70 kDa protein 1A (Homo sapiens, UniProt P0DMV8); assay: Hsp70 inhibitors, SAR follow-up, biochemical, fluorescence polarization (AID 1072)

Chain of Serine/threonine-protein phosphatase PP1-alpha catalytic subunit (P62136 whole entry): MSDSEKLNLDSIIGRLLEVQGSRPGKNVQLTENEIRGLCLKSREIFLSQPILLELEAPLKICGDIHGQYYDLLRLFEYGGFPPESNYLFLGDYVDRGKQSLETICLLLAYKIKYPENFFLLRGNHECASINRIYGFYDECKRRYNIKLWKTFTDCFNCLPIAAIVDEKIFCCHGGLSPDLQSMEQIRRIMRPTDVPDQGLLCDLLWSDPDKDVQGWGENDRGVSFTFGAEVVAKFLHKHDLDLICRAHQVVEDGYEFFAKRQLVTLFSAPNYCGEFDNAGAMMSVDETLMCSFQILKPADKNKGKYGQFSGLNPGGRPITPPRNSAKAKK

CC1CC(NC(=O)C2C3CCC(O3)C2C(=O)O)CC(C)(C)C1 (stereo unspecified)
IC50 [1]: 2.85 µM (active)
IC50 [2]: 2.78 µM (active)
IC50 (Coagulation factor XII): > 50 µM (inactive)

N#C/C(=C\c1ccccc1[N+](=O)[O-])C(=O)NCc1ccccc1
IC50 [3]: 3.09 µM (active)
IC50 [4]: > 66 µM (inactive)
IC50 [5]: > 66 µM (inactive)

Cc1cc(F)ccc1NCC(=O)Nc1ccc(Br)cc1C
CC50 [6]: > 40 µM (active)

CCC(c1nnnn1Cc1ccco1)N1CCN(c2cc(Cl)ccc2C)CC1 (stereo unspecified)
EC50 [7]: 4.19 µM (active)
AC50 [8]: 3.44 µM (active)

COc1ccc(C(=O)/C=C/c2cn(CC(O)CN3CCN(C)CC3)c3ccccc23)cc1OC (stereo unspecified)
EC50 (Troponin, cardiac muscle): 12.3 µM (inactive)

Cn1nccc1NC(=O)Nc1cccc(Cl)c1Cl
EC50 (Troponin, cardiac muscle): > 71.4 µM (inactive)

COc1ccc(CN(CCC#N)C(=S)NC(=O)c2ccccc2)cc1
CC50 [6]: 39 µM (active)
AC50 (Cytochrome P450 2D6): 25.1 µM (inconclusive)

COc1ccccc1Sc1nc(-c2ccccn2)ncc1OC
EC50 [9]: 27.1 µM (active)
IC50 [1]: 7.52 µM (active)
EC50 (Streptokinase A): > 150 µM (not active)
IC50 [2]: 66.8 µM (not active)
EC50 (Streptococcus): > 150 µM (not active)

O=C(Nc1ccccc1-c1nnc(SCc2ccc(Cl)cc2)o1)c1ccccc1
EC50 [10]: 2.22 µM (active)
EC50 [11]: > 60 µM (not active)
EC50 [7]: 6.46 µM (active)

Cc1sc2nc3c(SC(C)C(=O)O)cc(C(=O)c4ccccc4O)cn3c(=O)c2c1C (stereo unspecified)
CC50 [12]: 42.7 µM (active)
EC50 [13]: 25.1 µM (not active)
EC50 [14]: 14.7 µM (not active)
IC50 (Aminopeptidase N): 57.8 µM (active)
EC50 [15]: 25.9 µM (not active)
IC50 (cells [16]): 41.5 µM (active)

CCn1cc(C(=O)O)c(=O)c2cc(F)c(N/N=C/c3ccccc3)cc21
CC50 [6]: 34.1 µM (active)
IC50 (cells [17]): > 29.9 µM (inactive)
EC50 [18]: 19.7 µM (inactive)
IC50 [19]: 1.68 µM (active)
EC50 (cells [20]): > 29.9 µM (inactive)

CC1C2C=CC1C(c1c3ccc(=O)c(O)c-3oc3c(O)c(O)ccc13)C2C(=O)O (stereo unspecified)
IC50 [21]: 5.58 µM (active)
IC50 [22]: 634 nM (active)

O=C1Nc2ccccc2N2CCCC12 (stereo unspecified)
IC50 [1]: > 67 µM (not active)
IC50 [2]: > 2.48 µM (active)
